This is an account of results in patent US12685719B2, “Treatment of breast cancer with selective androgen receptor modulators and cyclin-dependent kinase 4/6 inhibitors” (UNIVERSITY OF TENNESSEE RESEARCH FOUNDATION, priority 2012, dated 2026).

Structures are written as SMILES.

One assay has as its system HCI-9 PDX. Put plainly: HCI-9 PDX in NSG mice. The format is in vivo. The conditions noted are these: Formula IX 10 mpk p.o., enzalutamide 30 mpk p.o. How it is done: After 6 days of treatment, cells were harvested, and the number of cells was counted. […] Medium was changed after 3 days and re-treated. Cells were fixed after 6 days of treatment and the cell viability was measured by SRB assay. […] Medium was changed, and the cells were re-treated on days 4 and 7. Medium was collected, pooled from triplicates, and stored in −80° C. After 10 days of treatment, cells were fixed, and cell viability was measured using SRB. MCF-7 cells stably transfected with GFP (MCF-7-GFP) were plated in growth medium. Twenty-four hours after plating, cells were fed with the conditioned medium obtained from patient-derived fibroblasts as indicated above. Cells were fed for 10 days with conditioned medium, with medium changed on days 4 and 7. After 10 days of treatment, cells were fixed, and the viability was measured by SRB assay. […] Tumor volume was measured thrice weekly. […] ER-α from HCI-13 was cloned into pCR3.1 vector. Wildtype ER-α and HCI-13 ER-α, ERE-LUC, and CMV-LUC were transfected into COS-1 cells using lipofectamine. […] Twenty four hours after treatment cells were harvested and luciferase assay was performed. […] Values are expressed as average±S.E. from n=3-4/data point.

The nature of assay [1]: Phase 3 trials in non-small cell lung cancer muscle wasting. The format is in vivo, human. As to conditions: 3 mg daily, both studies. From the text: These include: 1. Protocol G100401, a Phase 1 single ascending dose study in 96 healthy, young, male volunteers; 2. Protocol G100402, a Phase 1 multiple ascending dose study in 50 healthy, young, male volunteers, and 23 elderly male volunteers with truncal obesity; 3. Protocol G100503, a Phase 1 single dose pharmacokinetic study to assess the effect of a dosage regimen that simulates a sustained release formulation to an immediate release formulation in 18 healthy, young male volunteers and 18 postmenopausal women; 4. Protocol G100506, a Phase 1 single dose pharmacokinetic study to assess the relative bioavailability of a 3 mg hard shell capsule formulation to be used during continued clinical development and to assess the effect of food on the pharmacokinetics of the 3 mg softgel formulation in 27 healthy, young, male volunteers; 5. Protocol 006, a Phase 1 single dose and multiple dose pharmacokinetic study in 24 postmenopausal, Japanese women; 6. Protocol G200501, a Phase 2 study in 60 postmenopausal women and 60 elderly men to assess lean body mass and physical function; 7. Protocol 003, a Phase 1b study in 44 postmenopausal women; 8.

In assay [2] the test system is MDA-MB-231 triple negative breast cancer cells. The assay can be described thus: SRB cell viability of MDA-MB-231 cells infected with AR or LacZ adenovirus. It counts as cell-based. The conditions noted are these: treated 3 days. How it is done:
The SRB assay was used to determine cell number during cytotoxocity experiments. The following protocol was used: • 1. Cells were detached with 0.25% trypsin. • 2. Experimental cultures were cultured in 96-well microtiter plates (200 uL growth medium per well; 1,000-200,000 cells per well). • 3. Cultures were fixed with 50 uL 50% TCA (4° C.). (see cell fixation protocol for details). • 4. Fixed cells were stained with 50 uL 0.4% (wt/vol) SRB in 1% acetic acid for 10 minutes. • 5. SRB was removed and the cultures were quickly* rinsed 5 times with 1% acetic acid to remove unbound dye.** • 6. Cultures were air-dried overnight until there was no visible moisture. • 7. […] Absorbance was read at 540 nm. • * quickly performing rinsing process was to prevent desorption of protein-bound SRB • ** completely removed residual wash solution by sharply flicking plates over sink. […]
Cells were treated in charcoal stripped FBS (FIGS. 4A, 4C, 4E, 4G, 4I, 4K, 4M and 4O) or full serum (FIGS. 4B, 4D, 4F, 4H, 4J, 4L, 4N and 4P) for 3 days, fixed and stained with […] (SRB) to measure cell viability. Anti-proliferative IC50 values were calculated in breast cancer cells and compared to transactivation values, i.e., EC50 (agonists) and IC50 (antagonists) values, generated in HEK-293 cells.

Assay [3] concerns breast cancer specimens obtained from patients. Put plainly: Breast cancer patient specimens, ex vivo sponge culture, real time PCR.
For another assay, the system named is BR-0001 TNBC. Put plainly: BR-0001 AR-positive TNBC xenograft in NSG mice. It counts as in vivo. How it is done:
Experiments 1 and 2 were duplicate experiments run at different times with n=5 and n=10 animals, respectively. FIG. 27A provides results for Experiment 1, FIG. 27B provides results for Experiment 2 and FIG. 27C provides results for Experiment 2. BR-0001 TNBC fragments of 1 mm^3 (approximately) were implanted subcutaneously in NOD scid gamma (NSG) mice. […] Tumor volume was measured thrice weekly. Animals were sacrificed and tumors were weighed.
Tumors from experiment 2 were fixed in formalin and paraffin embedded. […] As a reference, inset into the graphics are bars which are 200 microns (m) in length.
NSG mice obtained from JAX labs were housed with five animals per cage and were allowed free access to tap water and commercial rat chow (Harlan Teklad 22/5 rodent diet—8640). During the course of the study, the animals were maintained on a 12 hr light:dark cycle. Animals were anesthetized and BR-0001 TNBC fragments of 1 mm^3 (approximately) were implanted subcutaneously in NSG mice. […] Tumor volume was measured thrice weekly. Tumor volume was calculated using the formula length×width×width×0.5236. Once tumors reached greater than 1500-2000 mm^3, animals were sacrificed and tumors weighted and stored for various analysis. Two regions of the same BR-0001 tumor, an AR-positive TNBC xenograft, were immunohistochemically stained with AR antibody (AR N20 from SCBT) (FIGS. 26A and 26B) and compared to an AR-negative (FIG. 26C) TNBC as a negative control. […] The tumor xenograft efficacy experimental results are provided in 27A-27C, with FIGS. 27A and 27B being replicate experiments.
Tumors from replicate experiment 2 (FIG. 27B) were fixed in formalin and paraffin embedded. Slides were cut and stained with Ki-67 antibody. Ki-67 positive cells (total 200 cells were counted in each slide) in each slide were counted and represented as % stained cells, as shown in FIG. 28B.

The test system of the next assay is MCF-7 cells. Put plainly: MCF-7-AR / MCF-7-GFP cell viability (SRB). It counts as cell-based. The conditions noted are these: MCF-7 cells expressing AR (MCF-7-AR), 6 days. How it is done:
After 6 days of treatment, cells were harvested, and the number of cells was counted. […] Medium was changed after 3 days and re-treated. Cells were fixed after 6 days of treatment and the cell viability was measured by SRB assay. […] Medium was changed, and the cells were re-treated on days 4 and 7. Medium was collected, pooled from triplicates, and stored in −80° C. After 10 days of treatment, cells were fixed, and cell viability was measured using SRB. MCF-7 cells stably transfected with GFP (MCF-7-GFP) were plated in growth medium. Twenty-four hours after plating, cells were fed with the conditioned medium obtained from patient-derived fibroblasts as indicated above. Cells were fed for 10 days with conditioned medium, with medium changed on days 4 and 7. After 10 days of treatment, cells were fixed, and the viability was measured by SRB assay. […] Tumor volume was measured thrice weekly. […] ER-α from HCI-13 was cloned into pCR3.1 vector. Wildtype ER-α and HCI-13 ER-α, ERE-LUC, and CMV-LUC were transfected into COS-1 cells using lipofectamine. […] Values are expressed as average±S.E. from n=3-4/data point.
Cells were plated at varying densities in growth medium in 96 well plates. Cells were treated as indicated in the figures and viability measured using sulforhodamine B (SRB) or the number of cells counted using Coulter counter.

Assay [4] has as its system HCC-38 triple negative breast cancer cells. Put plainly: SRB cell viability of HCC-38 cells infected with AR or LacZ adenovirus. As to conditions: treated 3 days. It counts as cell-based. How it is done:
The SRB assay was used to determine cell number during cytotoxocity experiments. The following protocol was used: • 1. Cells were detached with 0.25% trypsin. • 2. Experimental cultures were cultured in 96-well microtiter plates (200 uL growth medium per well; 1,000-200,000 cells per well). • 3. Cultures were fixed with 50 uL 50% TCA (4° C.). (see cell fixation protocol for details). • 4. Fixed cells were stained with 50 uL 0.4% (wt/vol) SRB in 1% acetic acid for 10 minutes. • 5. SRB was removed and the cultures were quickly* rinsed 5 times with 1% acetic acid to remove unbound dye.** • 6. Cultures were air-dried overnight until there was no visible moisture. • 7. The cellular protein-bound SRB was dissolved with 200 uL unbuffered Tris base (10 mM, pH 10.5) for 30 minutes on a rocking platform shaker. • 8. Absorbance was read at 540 nm. • * quickly performing rinsing process was to prevent desorption of protein-bound SRB • ** completely removed residual wash solution by sharply flicking plates over sink. Fixation of Cells Attached to the Plastic Substratum
The following protocol was used for fixing cells: • a. 50 uL of 50% TCA (4° C.) was gently layered on the top of growth medium in each well to make a final TCA concentration of 10%. • b. Cultures were incubated at 4° C. for 1 hour. • c. […]

For `C[C@](O)(COc1ccc(C#N)cc1)C(=O)Nc1ccc(C#N)c(C(F)(F)F)c1` [Formula IX, (S)-N-(4-Cyano-3-(trifluoromethyl)phenyl)-3-(4-cyanophenoxy)-2-hydroxy-2-methylpropanamide], the “growth trajectory of the tumors” value with HCI-9 PDX is reported as “Neither Formula IX nor enzalutamide altered the growth trajectory”. Further, in assay [1], the lean body mass result is on record as “increased lean body mass”. Also, the “cell growth (SRB cell viability)” value in assay [2] and in assay [4] was “inhibited” each time. Besides, in assay [3] (1 μM Formula IX or 100 nM fulvestrant), the “ER function in specimen 1005” value is on record as “inhibited the ER function”. For the same compound, the “specimens in which AR agonist ability was observed” value in assay [3] (1 μM, three days) is reported as 4 of 8. Further, in the assay with BR-0001 TNBC (10 mg/kg/day Formula IX or enzalutamide orally), the “tumor growth (tumor volume)” value is on record as “some tumor growth inhibition”. In addition, the “reduction of tumor weight” value in the assay with BR-0001 TNBC (experiment 2, 10 mg/kg/day orally) is -40%. Also, the “proliferation (SRB)” value in the assay on MCF-7 cells was “inhibited proliferation”.
